The subject of test [1] is TGF-β1 activation. Put plainly: TGF-β1 activation by prostate adenocarcinoma cells (ELISA). It counts as cell-based, human. As for the experimental part: (§1) Each measurement was performed in duplicates.
(§2) It has been shown that cancer cells, such as human breast cancer, some melanoma cell lines and prostate adenocarcinoma cell lines, constitutively release biologically active TGF-β1 into the culture medium (24, 25, 29). Since the homotypic cell culture system would be of advantage due to its simplicity, an attempt was made to implement cancer cells as a method for TGF-β1 activation.
In general terms: An ELISA detects its analyte on a solid surface through an enzyme-linked reagent.

The test system of test [2] is TGF-β1 activation. Description: Macrophage activation assay (IC-21 macrophages, LPS, fetal fibroblast conditioned media, ELISA). Format: cell-based, mouse. As for the experimental part:
(§3) Cultured macrophages were lifted from the dish with 3 ml of PBS. The PBS was balanced with 15 ml of RPMI-1640 containing 10% FBS. The cells were counted and then seeded in 100 mm plates at 1×10^6 cells/dish. When the cultured macrophages reached approximately 70% confluency (2-3 days) they were washed with PBS and RPMI-1640 medium containing 5% FBS and 10 ng/ml LPS was applied (FIG. 1). After 24 h of activation with LPS the cells were washed gently with PBS. At this point conditioned medium from confluent fetal dermal fibroblasts was collected and 5 ml was distributed into each dish containing macrophages. The cells were incubated for an additional 24 h, the media were collected, spun down at 600×g for 10 min and stored at 4° C. before TGF-β1 evaluation by ELISA. Each condition was done in duplicate. The cells, washed with PBS, were harvested for total RNA extraction.
Fetal dermal fibroblasts were seeded in 100 mm dishes at 1×10^6 cell/dish. The cells were grown to confluency (2-3 days). The cultures were washed with PBS and fresh medium, either DMEM supplemented with 10% FBS or AIM-V medium (a serum free medium) for serum-free conditions, was applied for 24 h (FIG. 1). The medium was collected and combined in order to obtain a homogenous pool of latent TGF-β1. The collection of the medium was done just prior to application in the macrophage assay.
as §1

Test [3] has as its system TGF-β1 activation. Description: TGF-β1 activation by Bowes melanoma cells (ELISA). Format: cell-based, human. How it is done: as §1, §2
Test [4] deals with TGF-β1 activation. Put plainly: TGF-β1 activation by HMB-2 melanoma cells (ELISA). It counts as cell-based, human. As for the experimental part: as §1, §2
Test [5] relates to TGF-β1 mRNA. Description: mRNA for TGF-β1 in macrophages by Northern blot. Format: cell-based, mouse. The settings on record: LPS alone or LPS with M6P or DCA, FIG. 2. As for the experimental part:
The cells were washed with PBS, followed by addition of the extraction buffer provided with the kit (RNeasy RNA extraction kit). The lysed cells were scraped from the dish and collected in microtubes. Samples were either frozen at −70° C. before analysis or directly assessed following manufacturer protocol. Absorbance at 260 nm and 280 nm was measured and the integrity of RNA was evaluated by denaturing formaldehyde agarose gels stained with ethidium bromide.
Northern blot analysis was carried out as described previously (27). Briefly, total RNA samples (5 μg) were diluted in formaldehyde-MOPS buffer and subjected to electrophoresis in a denaturing 1.2% Sea Kem GTG agarose gel along with the RNA size markers. RNA was transferred to a nitrocellulose membrane by capillary transfer. The blots were prehybridized for 3 h at 42° C. in a solution containing 10% dextran sulfate, 2×Denhardt's solution, 50% formamide, 5×SSPE (0.75 M Sodium chloride, 0.05 M sodium phosphate, 0.005 M ethylenediaminetetraacetic acid)/0.1% SDS, and 250 μg/ml of sheared salmon testis DNA. Hybridization solution was essentially the same except that ^32P dCTP-labeled DNA probe and 150 μg/ml of salmon testis DNA were included. The hybridization was carried out for 16 h at 42° C. […]

Test [6] has as its system TGF-β1 activation. Description: BAEC treated with retinoic acid, TGF-β1 in conditioned media by ELISA. It counts as cell-based, bovine. As for the experimental part:
The procedures for preparation of conditioned media were described previously (22). Briefly, for the retinoid experiment, BAEC cells were grown to confluency in 35 mm dishes. The cultures were rinsed with PBS (Phosphate Buffered Saline), and incubated in 1 ml of serum-free DMEM containing 0.1% of BSA and retinoic acid (10 μM) or vehicle (0.5% ethanol). The incubation was carried out for 24 h. The medium was aspirated, the cells were washed with PBS and then incubated in 1 ml of DMEM/0.1% BSA for an additional 12 h to produce conditioned medium. Conditioned media were centrifuged and used in the ELISA assay for TGF-β1 evaluation.
Each measurement was performed in duplicates. […]

In the next test the test system is M6P/IGF-II receptor mRNA. Description: M6P/IGF-II receptor mRNA in human neonatal fibroblasts by RT-PCR. It counts as cell-based. The settings on record: 100 and 200 μM. As for the experimental part:
(§4) Human neonatal fibroblasts were seeded in 100 mm dishes at 1×10^6 cells/dish. […] In addition, cells were treated with two concentrations of Mannose 1-Phosphate (M1P) (100 and 200 μM) for 24 and 48 h. […] Each treatment was run in duplicates and repetitive analyses were performed.
(§5) The procedure used to transcribe the total RNA was described in detail previously (28). Briefly, the reaction was carried out in a total volume of 25 μl containing 1× reverse transcriptase buffer (50 mM Tris-HCl, pH 8.3, 75 mM KCl, 3 mM MgCl2), 10 mM DTT (Dithiothreitol), 2.5 mM each of dNTPs (Deoxynucleotides), 100 μg/ml of acetylated BSA, 4 units of rRNasin (ribonuclease inhibitor), 200 units of SuperScript™ RNase H^−Reverse Transcriptase, 0.1 μg of oligo (dT)12-18 and 1 μg of total RNA. Incubation was carried out for 1 h at 42° C. and was terminated by the addition of an equal volume of cold water.
(§6) A portion of the first strand cDNA reaction was used in PCR, which was carried out in 25 μl containing 16 mM Tris-HCl, pH 8.3, 50 mM KCl, 1.5 mM MgCl2, 0.01% gelatin, 200 μM of each dNTPs, 1 μM each sense and antisense oligonucleotides and 2.5 units of AmpliTaq DNA polymerase. Amplification was carried out for 35 cycles. Each cycle consisted of: denaturation 1 min at 95° C.; annealing at 55° C. (optimal for the pair of oligonucleotides used) for 2 min; and elongation at 72° C., 3 min. For the final cycle elongation was 7 min. Reaction products were separated by 2% agarose gel electrophoresis and were visualized by ethidium bromide staining. Sizes were determined using Q X 174 DNA/Hae III markers. Restriction digests were performed in order to confirm PCR product specificity. Densitometry was used for quantitative analysis of the ethidium bromide stained gels.

The subject of test [7] is TGF-β1 mRNA. Put plainly: TGF-β1 mRNA in human neonatal fibroblasts by RT-PCR. The settings on record: 100 and 200 μM. It counts as cell-based. As for the experimental part: as §4, §5, §6
Test [8] deals with TGF-β1 activation. Put plainly: Activation of rHLTGF-β1 by macrophages. Format: cell-based, mouse. The settings on record: 200 pg/ml rHLTGF-β1. As for the experimental part: as §3, §1
The substitution in the media with purified recombinant latent form of TGF-β1 was tested in an attempt to determine the requirement for fibroblast conditioned media in the macrophage assay. Only 3.3% of rHLTGF-β1 was activated by macrophages when the treatment with LPS was omitted (Table 5).

Setting [9] is: BAEC + RA (10 μM) + test agent 100 μM.
[10] abbreviates: BAEC + RA (10 μM), conditioned medium.

On to `NCCSSCCN` [Cystamine, cystamine], for which the “% ACTIVE TGF-β1 (STD)” value in the test on TGF-β1 activation [1] (Adenocarcinoma cells, M6P 100 μM, cystamine 100 μM, antibody 1:1500 dil) was found to be 91.1%. In addition, the “active TGF-β1, % Control (STD)” value in the test on TGF-β1 activation [2] (50 μM M6P + 100 μM putrescine or cystamine) is “did not show additive effect”.
For `CN(C)c1cccc2c(S(=O)(=O)NCCCCCN)cccc12` [DCA, monodansylcadaverine], the “% ACTIVE TGF-β1 (STD)” value with TGF-β1 activation [3] (BOWES, M6P 100 μM, DCA 100 μM, antibody 1:1500 dil) turned out to be 145%; with TGF-β1 activation [4] (HMB-2, M6P 100 μM, DCA 100 μM, antibody 1:1500 dil), 110.7%. For the same compound, the “effect on TGF-β1 activation, in words” value in the test on TGF-β1 activation [3] (melanoma cells (Bowes)), in the test with TGF-β1 activation [4] (melanoma cells (HMB-2)) and in the test with TGF-β1 activation [1] (prostate cancer cells) was “no effect” in each case. For the same compound, the “levels of mRNA for TGF-β1, in words” value with TGF-β1 mRNA [5] was “remained the same”.
Consider `O=P(O)(O)O[C@H]1O[C@H](CO)[C@@H](O)[C@H](O)[C@@H]1O` [M1P, alpha-D(+)mannose 1-phosphate], for which the “inhibitory effect on TGF-β1 activation, in words” value with TGF-β1 activation [6] (100 μM, BAEC treated with RA) is on record as “no significant inhibitory effects”. For the same compound, in the test on TGF-β1 activation [6] (setting [9]), the “% Active” value came to 7.6%, the “Active TGF-β1” value is 280 pg/mL and the “Total TGF-β1” value is 3686 pg/mL. The “effect on M6P/IGF-II receptor mRNA level, in words” value with M6P/IGF-II receptor mRNA is reported as “no effects”. Moreover, the “effect on TGF-β1 mRNA level, in words” value with TGF-β1 mRNA [7] is reported as “no effects”.
On to `Cl.Cl.NCCCCN` [Putrescine, putrescine-dihydrochloride], for which the “active TGF-β1, % Control (STD)” value in the test with TGF-β1 activation [2] (100 μM) was found to be 80.6%.
Regarding `CC1=C(/C=C/C(C)=C/C=C/C(C)=C/C(=O)O)C(C)(C)CCC1` [RA, all-trans retinoic acid], the “% Active” value with TGF-β1 activation [6] (BAEC + RA (10 μM)) is recorded as 10.3%. For the same compound, in the test with TGF-β1 activation [6] (setting [10]), the “Active TGF-β1” value was found to be 276 pg/mL and the “Total TGF-β1” value was 2667 pg/mL.
On to IGF-II: Recombinant human IGF-II, for which the “effect on TGF-β1 activation, in words” value in the test on TGF-β1 activation [2] is “inhibited TGF-β1 activation”; in the test with TGF-β1 activation [2] (IGF-II 15 and 30 nM) it was “dose-dependent inhibitory effect”. In addition, the “active TGF-β1, % Control (STD)” value is 65.1% with TGF-β1 activation [2] (IGF-II 15 nM) and 54.3% in the test with TGF-β1 activation [2] (IGF-II 30 nM).
Regarding “rHLTGF-β1: Recombinant human latent TGF-β1”, in the test with TGF-β1 activation [8] (LPS), the “% Active” value came to 12.2%, the “Active TGF-β1” value is 48.8 (3.5) pg/ml and the “Total TGF-β1” value is listed as 399 (44.5) pg/ml. For the same compound, in the test on TGF-β1 activation [8] (No LPS), the “% Active” value was 3.3%, the “Active TGF-β1” value is recorded as 10.9 (7.2) pg/ml and the “Total TGF-β1” value was 324 (7.2) pg/ml.
